Measurements as given in ChEMBL document CHEMBL1131552, “Identification of side chains on 1,2,5-thiadiazole-azacycles optimal for muscarinic m1 receptor activation” (Bioorg Med Chem Lett, 1998).
pEC50: −log10 of the molar value.

system: not listed separately; assay: Potency ratio of EC50 of the CHO cell lines to that of A9L cell lines was calculated; type: functional

SMILES	Potency ratio
CN1CCC=C(c2nsnc2OCC#Cc2ccccc2)C1	2

target: T1, Muscarinic acetylcholine receptor M2 (Homo sapiens, UniProt P08172)
T1 sequence (P08172 whole entry): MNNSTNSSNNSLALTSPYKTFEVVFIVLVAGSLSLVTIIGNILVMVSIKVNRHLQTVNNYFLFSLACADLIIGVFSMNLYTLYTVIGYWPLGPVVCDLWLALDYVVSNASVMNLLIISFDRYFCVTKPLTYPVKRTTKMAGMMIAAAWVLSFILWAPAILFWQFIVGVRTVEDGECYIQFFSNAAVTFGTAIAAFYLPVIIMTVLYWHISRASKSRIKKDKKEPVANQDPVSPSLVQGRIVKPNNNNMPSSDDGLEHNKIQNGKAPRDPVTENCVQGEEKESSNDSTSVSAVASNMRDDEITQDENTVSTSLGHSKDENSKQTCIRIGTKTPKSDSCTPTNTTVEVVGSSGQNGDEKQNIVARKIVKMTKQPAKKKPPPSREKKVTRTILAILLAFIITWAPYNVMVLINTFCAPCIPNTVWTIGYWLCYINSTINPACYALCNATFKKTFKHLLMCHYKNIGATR
Description: Stimulation of cAMP in CHO cells expressing human m2 receptor

SMILES	pEC50
C(#Cc1ccccc1)COc1nsnc1C1CN2CCC1CC2 (stereo not given)	7.21
COc1cccc(C#CCO/N=C2\CN3CCC2C3)c1 (stereo not given)	4.55

The remaining lines, values ahead:

pEC50	SMILES
8.70	C(#Cc1ccccc1)CSc1nsnc1[C@H]1CN2CCC[C@H]1C2
6.11	C(#Cc1ccccc1)COc1nsnc1C12CN3CC1C2C3
< 5.00	C(#Cc1ccccc1)CSc1nsnc1[C@@H]1CN2CCC[C@H]1C2
7.54	C(#Cc1ccccc1)COc1nsnc1[C@@H]1CN2CCC[C@@H]1C2
6.86	C(#Cc1ccccc1)CSc1nsnc1[C@@H]1CN2CC[C@H]1C2
6.64	C(#Cc1ccccc1)COc1nsnc1[C@@H]1CN2CCC[C@H]1C2
5.97	C(#Cc1ccccc1)COc1nsnc1[C@H]1CN2CC[C@@H]1C2
7.96	C(#Cc1ccccc1)COc1nsnc1[C@H]1CN2CCC1C2 (stereo not given in full)
5.65	C(#Cc1ccccc1)COc1nsnc1[C@H]1CN2CCC[C@@H]1C2
6.62	CN1CCC=C(c2nsnc2OCC#Cc2ccccc2)C1
5.96	C(#Cc1ccccc1)COc1nsnc1[C@@H]1CN2CC[C@H]1C2
8.05	C(#Cc1ccccc1)COc1nsnc1[C@H]1CN2CCC[C@H]1C2

target: T2, Muscarinic acetylcholine receptor M1 (Homo sapiens) (UniProt P11229); assay: Stimulation of phosphoinositide hydrolysis in BHK cells; type: functional, cell-based
T2 sequence (whole entry): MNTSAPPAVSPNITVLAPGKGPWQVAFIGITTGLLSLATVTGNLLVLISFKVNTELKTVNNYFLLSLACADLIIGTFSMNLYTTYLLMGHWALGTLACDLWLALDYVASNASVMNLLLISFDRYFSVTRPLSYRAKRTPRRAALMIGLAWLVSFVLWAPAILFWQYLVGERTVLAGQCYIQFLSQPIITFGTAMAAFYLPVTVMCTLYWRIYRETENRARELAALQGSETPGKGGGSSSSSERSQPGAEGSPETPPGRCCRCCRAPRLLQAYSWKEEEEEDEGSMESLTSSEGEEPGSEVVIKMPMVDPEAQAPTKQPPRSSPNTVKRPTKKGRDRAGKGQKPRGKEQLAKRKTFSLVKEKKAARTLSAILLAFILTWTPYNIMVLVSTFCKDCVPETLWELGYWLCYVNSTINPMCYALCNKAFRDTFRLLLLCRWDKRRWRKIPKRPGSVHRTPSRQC

Max PI [%]	SMILES
14	COc1cccc(C#CCO/N=C2\CN3CCC2C3)c1 (stereo not given)

target: Muscarinic acetylcholine receptor; assay: Binding affinity against muscarinic receptor in rat brain membranes using oxotremorine-M as ligand; type: cell membranes

IC50 [nM]	SMILES
3.4	C(#Cc1ccccc1)COc1nsnc1[C@@H]1CN2CCC[C@@H]1C2

target: T3, Muscarinic acetylcholine receptor M1 (Homo sapiens, UniProt P11229); assay: Effective concentration required for stimulation of phosphoinositide hydrolysis in A9L cells expressing human m1 receptor; type: functional, cell-based
T3 sequence (P11229 whole entry): T2 sequence (whole entry)

pEC50	SMILES
9.70	C(#Cc1ccccc1)CSc1nsnc1[C@H]1CN2CCC[C@H]1C2

target: Muscarinic acetylcholine receptor

SMILES	IC50 [nM]
CCOc1nsnc1C1=CCCN(C)C1	5.7
COc1nsnc1C1=CCCN(C)C1	22
CCCCCCOc1nsnc1[C@@H]1CN2CC[C@H]1C2 (stereo in doubt; 13)	16
CN1CCC=C(c2nsnc2SCCc2ccccc2)C1	23
CCCCCCCCOc1nsnc1C1=CCCN(C)C1	30
CCCCCCCOc1nsnc1C1=CCCN(C)C1	6.2
CCCCCOc1nsnc1C1=CCCN(C)C1	2
CCCCCCOc1nsnc1[C@H]1CN2CC[C@H]1C2	0.73
CN1CCC=C(c2nsnc2OCCCc2ccccc2)C1	13
c1ccc(CCCSc2nsnc2[C@H]2CN3CCC[C@H]2C3)cc1	1.3
c1ccc(CCCSc2nsnc2[C@@H]2CN3CCC[C@H]2C3)cc1	35
CCCCCCOc1nsnc1[C@H]1CN2CCC[C@H]1C2	1.2
C(#Cc1ccccc1)COc1nsnc1C1CN2CCC1CC2 (stereo not given)	4.7
c1ccc(CCCSc2nsnc2C2CN3CCC2CC3)cc1 (stereo not given)	14
CCCCCCOc1nsnc1[C@@H]1CN2CC[C@H]1C2 (stereo in doubt; 26)	6
CN1CCC=C(c2nsnc2OCCCCc2ccccc2)C1	20
c1ccc(CCCSc2nsnc2[C@H]2CN3CC[C@H]2C3)cc1	1.7
COc1cccc(C#CCO/N=C2\CN3CCC2C3)c1 (stereo not given)	167
CCCOc1nsnc1C1=CCCN(C)C1	1.6
CN1CCC=C(c2nsnc2SCc2ccccc2)C1	5.9
CCCCCCOc1nsnc1[C@@H]1CN2CCC[C@H]1C2	63
CCCCCCOc1nsnc1C1CN2CCC1CC2 (stereo not given)	4.3
CN1CCC=C(c2nsnc2SCCCc2ccccc2)C1	1.3

The remaining lines, values ahead:

IC50 [nM]	SMILES
1.7	C(#Cc1ccccc1)CSc1nsnc1[C@H]1CN2CCC[C@H]1C2
14	C(#Cc1ccccc1)COc1nsnc1C12CN3CC1C2C3
15	CN1CCC=C(c2nsnc2OCCc2ccccc2)C1
363	C(#Cc1ccccc1)CSc1nsnc1[C@@H]1CN2CCC[C@H]1C2
8	CN1CCC=C(c2nsnc2OCc2ccccc2)C1
42	C(#Cc1ccccc1)CSc1nsnc1[C@@H]1CN2CC[C@H]1C2
66	C(#Cc1ccccc1)COc1nsnc1[C@@H]1CN2CCC[C@H]1C2
41	C(#Cc1ccccc1)COc1nsnc1[C@H]1CN2CC[C@@H]1C2
0.8	C(#Cc1ccccc1)COc1nsnc1[C@H]1CN2CCC1C2 (stereo not given in full)
78	C(#Cc1ccccc1)COc1nsnc1[C@H]1CN2CCC[C@@H]1C2
8.5	CN1CCC=C(c2nsnc2OCC#Cc2ccccc2)C1
20	C(#Cc1ccccc1)COc1nsnc1[C@@H]1CN2CC[C@H]1C2
1.2	C(#Cc1ccccc1)COc1nsnc1[C@H]1CN2CCC[C@H]1C2

target: T3, Muscarinic acetylcholine receptor M1
Description: Stimulation of phosphoinositide hydrolysis in A9L cells expressing human m1 receptor

SMILES	pEC50
C(#Cc1ccccc1)COc1nsnc1C1CN2CCC1CC2 (stereo not given)	7.80
COc1cccc(C#CCO/N=C2\CN3CCC2C3)c1 (stereo not given)	< 6.00

Now from value to compound:

pEC50	SMILES
7.15	C(#Cc1ccccc1)COc1nsnc1C12CN3CC1C2C3
9.00	C(#Cc1ccccc1)CSc1nsnc1[C@@H]1CN2CCC[C@H]1C2
< 7.00	C(#Cc1ccccc1)CSc1nsnc1[C@@H]1CN2CC[C@H]1C2
7.55	C(#Cc1ccccc1)COc1nsnc1[C@@H]1CN2CCC[C@H]1C2
6.80	C(#Cc1ccccc1)COc1nsnc1[C@H]1CN2CC[C@@H]1C2
9.00	C(#Cc1ccccc1)COc1nsnc1[C@H]1CN2CCC1C2 (stereo not given in full)
6.96	CN1CCC=C(c2nsnc2OCC#Cc2ccccc2)C1
7.17	C(#Cc1ccccc1)COc1nsnc1[C@@H]1CN2CC[C@H]1C2
9.30	C(#Cc1ccccc1)COc1nsnc1[C@H]1CN2CCC[C@H]1C2
